Results from patent US20120077732A1, “CYCLIC PEPTIDES AND USES THEREOF” (SYDNEY WEST AREA HEALTH SERVICE, priority 2008, published 2012).
Read-outs that look alike come from different tables or passages of the source. No end group written: not given here.

How the values were obtained:
[1] = test system: S. pneumoniae; assay: Standard disk susceptibility testing (NCCLS), S. pneumoniae; type: cell-based
Protocol: (§1) The synthetic C1 peptide and its analogues were tested using Standard disk susceptibility testing by National Committee for […] Laboratory Standards (NCCLS) against, S. aureus, E. coli and S. pneumoniae. […]

[2] = test system: E. coli; assay: Standard disk susceptibility testing (NCCLS), E. coli; type: cell-based
Protocol: as §1

[3] = test system: S. aureus; type: cell-based
Protocol: as §1

[4] = test system: allergic mice (OVA/OVA); assay: Allergic airways disease (OVA) model: inflammatory cells in BALF; type: in vivo; parameters: key to Airway lymphocytes / Airway eosinophils / Airway macrophages / Airway inflammatory cells / Airway neutrophils: nc: no change; ↑: increase; ↓: decrease; conditions: for Airway eosinophils / Airway inflammatory cells / Airway lymphocytes / Airway macrophages / Airway neutrophils: 200 μg/100 μl s.c. during OVA challenge, compared to OVA/OVA alone
[5] = test system: allergic mice (OVA/OVA); assay: Allergic airways disease (OVA) model: airways hyperreactivity to methacholine; type: in vivo; parameters: key to Airway Resistance / Airway Compliance: nc: no change; ↑: increase; ↓: decrease; conditions: for Airway Compliance / Airway Resistance: 200 μg/100 μl s.c. during OVA challenge, compared to OVA/OVA alone
[6] = test system: allergic mice (OVA/OVA); assay: Allergic airways disease (OVA) model: local and systemic OVA-specific cytokine production; type: in vivo; parameters: key to Spleen OVA-stimulated IL-5 / Spleen OVA-stimulated IL-13 / LN OVA-stimulated IL-5 / LNOVA stimulated IL-13: nc: no change; ↑: increase; ↓: decrease; conditions: for LN OVA-stimulated IL-5 / LNOVA stimulated IL-13 / Spleen OVA-stimulated IL-5 / Spleen OVA-stimulated IL-13: 200 μg/100 μl s.c. during OVA challenge, compared to OVA/OVA alone
[7] = test system: trypsin; type: in vitro ADME
Protocol: The effect of trypsin on C1 and CP was studied by incubating each peptide (1 μg/μl) in methanol and ammonium bicarbonate (0.1M) with 125 ng/μl of trypsin at pH 8 and 37° C. The effect of trypsin after incubation with CP and C1 was followed by mass spectrometry. […]

[8] = test system: 2B4.11 hybridoma; assay: Antigen presentation assay (IL-2 produced in response to antigen); type: cell-based; conditions: for % Ave IL2 Production: average, Tables 1-3; for IL2 %: 50 μM, relative to DMSO control (100%); for IL-2 production, % of the solvent only control value: 0.5% DMSO, ±SD
[9] = Surface plasmon resonance binding to DMPC liposomes; conditions: SPR, L1 sensor chip, 50 μM, 25° C.
Protocol: (§2) Model membranes composed of zwitterionic and anionic phospholipids were prepared as previously described (Bender et al., 2004). Briefly, DMPC and DMPG were dissolved in dry chloroform and chloroform/methanol (2:1) respectively to give 10 mg/ml solutions. […] The solution was sonicated in an ultrasonic bath for 20 min. Eight cycles of freeze/thawing was followed by extrusion through polycarbonate filters, first 100 nm (21 times) then 50 nm pore diameter (21 times), using a Lipofast apparatus (Avestin, Ottawa, Canada) and SUVs were used immediately. SPR was carried out on a BIAcore 2000 instrument using Pioneer Sensor Chip L1 and HEPES (HBS-N, Biacore, Upssala, Sweden) as running buffer. The chip surface was cleaned with 40 mM octyl glycoside (30 μl, 10 μl/min) followed liposomes (SUV) (100 μl, 5 μl/min). 10 mM NaOH (40 μl, 10 μl/min) removed any multilamellar vesicles from the surface before injecting the lipopeptide solutions (100 μl, 5 μl/min). The dissociation stage was 1200 sec. […] All SPR experiments were run at 25° C. and all analyses were performed using the BIAevaluation software (Biacore, Uppsala, Sweden). Lipopeptide binding was expressed as the difference in signal between points before sample injection and after dissociation.

[10] = Surface plasmon resonance binding to DMPG liposomes; conditions: for binding to DMPG (anionic) liposomes: SPR, L1 sensor chip, 50 μM, 25° C.
Protocol: as §2

[11] = second IL2 column (individual experiment in triplicate)
[12] = third IL2 column (individual experiment in triplicate)
[13] = first IL2 column (individual experiment in triplicate)
[14] = fifth IL2 column (individual experiment in triplicate)
[15] = fourth IL2 column (individual experiment in triplicate)
[16] = 200 μg s.c. during challenge, allergic mice

Molecule: CO/N=C(\C(=O)N[C@@H]1C(=O)N2C(C(=O)O)=C(COC(C)=O)CS[C@H]12)c1csc(N)n1 [Ceforaxime, reference compound]
- antimicrobial activity, S. pneumoniae ([1]; 30 μg/ml): −ve
- antimicrobial activity, E. coli ([2]; 30 μg/ml): +ve
- antimicrobial activity, S. aureus ([3]; 30 μg/ml): −ve

Molecule: Cc1onc(-c2ccccc2)c1C(=O)N[C@@H]1C(=O)N2[C@@H]1SC(C)(C)[C@@H]2C(=O)O [Oxacillin, reference compound]
- antimicrobial activity, S. pneumoniae ([1]; 1 μg/ml): +ve
- antimicrobial activity, E. coli ([2]; 1 μg/ml): −ve
- antimicrobial activity, S. aureus ([3]; 1 μg/ml): +ve

Molecule: C[C@H]1C[C@@H]2[C@H]([C@@H](O)C[C@@]3(C)[C@H]2CC[C@]3(O)C(=O)CO)[C@@]2(C)C=CC(=O)C=C12 [methylprednisolone, reference compound]
- Airway eosinophils [4]: ↓
- Airway inflammatory cells [4]: ↓
- Airway lymphocytes [4]: nc
- Airway macrophages [4]: ↓
- Airway neutrophils [4]: ↓
- Airway Compliance [5]: ↑
- Airway Resistance [5]: ↓
- LN OVA-stimulated IL-5 [6]: nc
- LNOVA stimulated IL-13 [6]: nc
- Spleen OVA-stimulated IL-5 [6]: ↓
- Spleen OVA-stimulated IL-13 [6]: ↓

Molecule: GLRILLLKV [CP, GLRILLLKV, reference compound]
- stability without trypsin, 3 hours (Mass spectroscopy-MS) [7]: No degradation product
- stability without trypsin, 24 hours (MS) [7]: No degradation product

Molecule: LDKLDKKDKLDKVDG (cyclo(LDKLDKKDKLDKVDG); ring closure inferred; not fully specified) [C11]
- % Ave IL2 Production [8]: 96%
- IL2 % [8, 11]: 88.5%
- IL2 % [8, 12]: 104%

Molecule: LDKLDKLDKLDKVDG [C2]
- antimicrobial activity, S. pneumoniae ([1]; peptide 10 μg/ml): −ve
- antimicrobial activity, S. pneumoniae ([1]; peptide 100 μg/ml): −ve
- antimicrobial activity, S. pneumoniae ([1]; peptide 1000 μg/ml): −ve
- antimicrobial activity, E. coli ([2]; peptide 10 μg/ml): −ve
- antimicrobial activity, E. coli ([2]; peptide 100 μg/ml): −ve
- antimicrobial activity, E. coli ([2]; peptide 1000 μg/ml): −ve
- antimicrobial activity, S. aureus ([3]; peptide 10 μg/ml): −ve
- antimicrobial activity, S. aureus ([3]; peptide 100 μg/ml): −ve
- antimicrobial activity, S. aureus ([3]; peptide 1000 μg/ml): −ve
- binding to DMPC (zwitterionic) liposomes [9]: only very limited binding
- % Ave IL2 Production [8]: 22%
- IL-2 production, % of the solvent only control value ([8]; peptide 25 μM): 58.74%±7.63
- IL-2 production, % of the solvent only control value ([8]; peptide 50 μM): 24.51%±8.81
- binding to the anionic liposome ([10]; SPR sensorgram): 3000 RU

Molecule: LDKLDLLDLLDKVDG (cyclo(LDKLDLLDLLDKVDG); ring closure inferred; not fully specified) [C5]
- % Ave IL2 Production [8]: 78%
- IL2 % [8, 13]: 73.6%
- IL2 % [8, 11]: 75%
- IL2 % [8, 12]: 85.4%

Molecule: LDLLDLLDRLDKVDG (cyclo(LDLLDLLDRLDKVDG); ring closure inferred; not fully specified) [C8]
- % Ave IL2 Production [8]: 33%
- IL2 % [8, 14]: 17.4%
- IL2 % [8, 15]: 20.2%
- IL2 % [8, 11]: 35%
- IL2 % [8, 12]: (61.2) %

Molecule: LDLLDRLDLLDKVDG (cyclo(LDLLDRLDLLDKVDG); ring closure inferred; not fully specified) [C6]
- % Ave IL2 Production [8]: 99%
- IL2 % [8, 13]: 104.5%
- IL2 % [8, 11]: 104%
- IL2 % [8, 12]: 89%

Molecule: LDRLDKKDKLDKVDG (cyclo(LDRLDKKDKLDKVDG); ring closure inferred; not fully specified) [C12]
- % Ave IL2 Production [8]: 27%
- IL2 % [8, 14]: 24%
- IL2 % [8, 13]: 9.0%
- IL2 % [8, 15]: 33.7%
- IL2 % [8, 11]: 21%
- IL2 % [8, 12]: (49) %

Molecule: LDRLDKLDKLDKVDG (cyclo(LDRLDKLDKLDKVDG); ring closure inferred; not fully specified) [C10]
- % Ave IL2 Production [8]: 59%
- IL2 % [8, 14]: 64.1%
- IL2 % [8, 15]: 54%

Molecule: LDRLDKLDLLDKVDG (cyclo(LDRLDKLDLLDKVDG); ring closure inferred; not fully specified) [C9]
- % Ave IL2 Production [8]: 25%
- IL2 % [8, 14]: 16.9%
- IL2 % [8, 15]: 6.75%
- IL2 % [8, 11]: 11.5%
- IL2 % [8, 12]: (65.3) %

Molecule: LDRLDKVDG (cyclo(LDRLDKVDG); ring closure inferred; not fully specified) [6AA]
- % Ave IL2 Production [8]: 35%
- IL2 % [8, 14]: 44.3%
- IL2 % [8, 13]: 9.0%
- IL2 % [8, 15]: 33.7%
- IL2 % [8, 11]: 36.5%
- IL2 % [8, 12]: (52) %

Molecule: LDRLDLLDKLDKVDG (cyclo(LDRLDLLDKLDKVDG); ring closure inferred; not fully specified) [C3, cyclic peptide 3]
- antimicrobial activity, S. pneumoniae ([1]; peptide 100 μg/ml): −ve
- antimicrobial activity, S. pneumoniae ([1]; peptide 1000 μg/ml): −ve
- antimicrobial activity, E. coli ([2]; peptide 100 μg/ml): −ve
- antimicrobial activity, E. coli ([2]; peptide 1000 μg/ml): −ve
- antimicrobial activity, S. aureus ([3]; peptide 100 μg/ml): −ve
- antimicrobial activity, S. aureus ([3]; peptide 1000 μg/ml): −ve
- binding to DMPC (zwitterionic) liposomes [9]: no binding at all
- % Ave IL2 Production [8]: 95%
- IL-2 production, % of the solvent only control value ([8]; peptide 50 μM): 91.69%±25.86
- binding to DMPG (anionic) liposomes [10]: no binding at all

Molecule: LDRLDLLDKVDG [8AA]
- % Ave IL2 Production [8]: 72%

Molecule: LDRLDLLDLLDKVDG [C1-L]
- binding to DMPC (zwitterionic) liposomes [9]: only very limited binding
- eosinophils in BALF [4, 16]: decrease
- total inflammatory cell counts in bronchoalveolar lavage fluid (BALF) [4, 16]: significantly decreased
- Airway eosinophils [4]: ↓
- Airway inflammatory cells [4]: ↓
- Airway lymphocytes [4]: nc
- Airway macrophages [4]: nc
- Airway neutrophils [4]: nc
- airway resistance in response to methacholine challenge [5, 16]: no significant effect
- dynamic compliance in response to methacholine challenge [5, 16]: no significant effect
- Airway Compliance [5]: nc
- Airway Resistance [5]: nc
- locally produced (peribronchial lymph node derived) IL-5 [6, 16]: no significant impact
- locally produced (peribronchial lymph node derived) IL-13 [6, 16]: no significant impact
- systemic (spleen derived) IL-5 [6, 16]: significantly decreased
- systemic (spleen derived) IL-13 [6, 16]: no change
- LN OVA-stimulated IL-5 [6]: nc
- LNOVA stimulated IL-13 [6]: nc
- Spleen OVA-stimulated IL-5 [6]: ↓
- Spleen OVA-stimulated IL-13 [6]: nc
- % Ave IL2 Production [8]: 90%
- IL-2 production, % of the solvent only control value ([8]; peptide 50 μM): only minimal activity
- binding to DMPG (anionic) liposomes [10]: only very limited binding

Molecule: LDRLDLLDLLDRVDG [C4]
- antimicrobial activity, S. pneumoniae ([1]; peptide 10 μg/ml): −ve
- antimicrobial activity, S. pneumoniae ([1]; peptide 100 μg/ml): −ve
- antimicrobial activity, S. pneumoniae ([1]; peptide 1000 μg/ml): −ve
- antimicrobial activity, E. coli ([2]; peptide 10 μg/ml): −ve
- antimicrobial activity, E. coli ([2]; peptide 100 μg/ml): −ve
- antimicrobial activity, E. coli ([2]; peptide 1000 μg/ml): −ve
- antimicrobial activity, S. aureus ([3]; peptide 10 μg/ml): −ve
- antimicrobial activity, S. aureus ([3]; peptide 100 μg/ml): −ve
- antimicrobial activity, S. aureus ([3]; peptide 1000 μg/ml): −ve
- binding to DMPC (zwitterionic) liposomes [9]: no binding at all
- % Ave IL2 Production [8]: 72%
- IL-2 production, % of the solvent only control value ([8]; peptide 50 μM): 74.54%±11.22
- binding to DMPG (anionic) liposomes [10]: no binding at all

Molecule: RDLLDLLDLLDKVDG [C7]
- % Ave IL2 Production [8]: 49%
- IL2 % [8, 14]: 76.4%
- IL2 % [8, 13]: 29%
- IL2 % [8, 15]: 71%
- IL2 % [8, 11]: 15.4%
- IL2 % [8, 12]: 54%
